# Reference: patent US20250041294A1, “Synergistic compositions for use in the treatment of cancer” (Sartar Therapeutics Oy, priority 2021, published 2025)
# Assays:
# Assay type in all cases: cell-based
# GOT3 and SA4 cell lines = test: High throughput drug sensitivity and resistance test, average over cell lines (anagrelide combination); settings: anagrelide combination, average of SA4 and GOT3; aDSS higher than 3.0 = synergy
# Description: Cell lines. PDE3A-positive (GIST882, SA4, and GOT3) and PDE3A-negative cell lines (93TT449, 94T778, LPS141, MLS17656-92, MLS402-91, and SW872) were cultured in RPMI Medium 1640 (Gibco) with 5-, 10- or 20% fetal bovine serum (FBS, gibco), 100 U/mL of penicillin, 100 […] and 0.03 mg/mL of L-glutamine (Pen Strep Glut, Gibco, 10378-016) in a humidified, 5% CO2 atmosphere at 37° C.
# High throughput drug sensitivity and resistance test. A sensitivity and resistance of cancer cell lines to 528 compounds were investigated in 9 cell lines (GIST882, SA4, GOT3, 93TT449, 94T778, LPS141, MLS17656-92, MLS402-91, and SW872). In addition, same compounds were investigated together with anagrelide hydrochloride (100 nM) treatment in the PDE3A low expressing cell lines SA4 and GOT3, and with BAY2666605 (40 nM) in all PDE3A-positive cell lines GIST882, SA4 and GOT3. The compounds were dissolved in 100% dimethyl sulfoxide or water and plated in 10-fold dilutions covering a 10,000-fold concentration range on flat clear bottom 384-well microplates as described in detail earlier (Pulkka O P, et al 2019). A cell viability was measured after 72 hours using CellTiter-Glo Cell Viability assay (Promega Inc.) and PHERAstar FS plate reader (BMG Labtech). The data were normalized to negative (0.01% dimethyl sulfoxide only) and positive (100 μmol/L benzethonium chloride) controls.
# A four-parameter logistic dose-response curves were estimated by using the Marquardt-Levenberg algorithm and Breeze analysis platform. Drug responses to the test compounds were measured using the drug sensitivity score (DSS). Drug synergy partners, which were common in investigated cell lines were identified as following: DSS value of a single agent was subtracted from the DSS value of anagrelide-drug combination in single cell lines. […] The analysis was repeated by using BAY2666605 as a PDE3A modulator.
# GOT3 cell line [1] = test: High throughput drug sensitivity and resistance test (CellTiter-Glo, 72 hours); settings: GOT3; for GOT3 cell line: DSS(combo (anagrelide))-DSS(drug): drug combined with anagrelide hydrochloride (100 nM) minus drug alone; for GOT3 cell line: DSS(combo (BAY2666605))-DSS(drug): drug combined with BAY2666605 (40 nM) minus drug alone
# Procedure, shortened: (§1)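 Compounds were plated in 10-fold dilutions spanning a 10,000-fold range, alone or with anagrelide (100 nM; SA4, GOT3) or BAY2666605 (40 nM; GIST882, SA4, GOT3). Viability was read by CellTiter-Glo after 72 h and normalized to DMSO and benzethonium chloride controls. Responses were expressed as DSS from four-parameter fits, and the single-agent DSS was subtracted from the combination DSS.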
# SA4 cell line [2] = test: as above; settings: SA4; for SA4 cell line: DSS(combo (anagrelide))-DSS(drug): drug combined with anagrelide hydrochloride (100 nM) minus drug alone; for SA4 cell line: DSS(combo (BAY2666605))-DSS(drug): drug combined with BAY2666605 (40 nM) minus drug alone
# Procedure, shortened: as §1
# GOT3 cell line [3] = test: Drug combination testing with concentration matrices, SynergyFinder 2.0; settings: combination with anagrelide, seven-concentration matrices
# Description: (§2) Drug combination testing with anagrelide and 12 selected drugs was performed as described above but with selected drugs using drug concentration matrices covering seven different concentrations with 3 replicate sample of each combinations and in two replicate assays. […] The tool implements synergy scoring with four major reference models: HSA, Loewe, Bliss and ZIP models. The degree of a drug combination effect can be readily visualized as a synergy landscape map over the dose matrix and ZIP synergy score.
# SA4 cell line [4] = test: as above; settings: combination with anagrelide, seven-concentration matrices
# Description: as §2
# GIST882 cell line [5] = test: as above; settings: combination with anagrelide, seven-concentration matrices
# Description: as §2
# [6] = system: GIST882, GOT3 and SA4 cell lines; test: High throughput drug sensitivity and resistance test, average over cell lines (BAY2666605 combination); settings: for synergy in high-throughput screening (in words): with anagrelide (GOT3, SA4) or BAY2666605 (GIST882, GOT3, SA4); for Average DSS (aDSS): BAY2666605 combination, average of GIST882, SA4 and GOT3, aDSS higher than 3.0 = synergy
# Procedure, shortened: as §1
# GIST882 cell line [7] = test: High throughput drug sensitivity and resistance test (CellTiter-Glo, 72 hours); settings: drug combined with BAY2666605 (40 nM) minus drug alone
# Procedure, shortened: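 GIST882 viability read by CellTiter-Glo after 72 h, normalized to 0.01% DMSO and 100 μmol/L benzethonium chloride. Compounds also combined with 40 nM BAY2666605. Four-parameter logistic curves; response as drug sensitivity score, with synergy as combination DSS minus single-agent DSS.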
Compound,Average DSS (aDSS) (GOT3 and SA4 cell lines),GOT3 cell line: DSS(combo (anagrelide))-DSS(drug) (GOT3 cell line [1]),SA4 cell line: DSS(combo (anagrelide))-DSS(drug) (SA4 cell line [2]),Average ZIP synergy score (GOT3 cell line [3]),Average ZIP synergy score (SA4 cell line [4]),Average ZIP synergy score (GIST882 cell line [5]),synergy in high-throughput screening (in words) [6],GIST882 cell line: DSS(combo (BAY2666605))-DSS(drug) (GIST882 cell line [7]),GOT3 cell line: DSS(combo (BAY2666605))-DSS(drug) (GOT3 cell line [1]),SA4 cell line: DSS(combo (BAY2666605))-DSS(drug) (SA4 cell line [2]),Average DSS (aDSS) [6]
CCN1C(=O)CNc2ncc(-c3ccc(-c4nc[nH]n4)nc3C)nc21 [CC-115],5.15,0.8,9.5,1.6,4.1,3.1,synergistic,–,–,–,–
Cc1ccc(NS(=O)(=O)c2cccc(C#N)c2)c2[nH]cc(C#N)c12 [E7820],12.85,7.5,18.2,1.6,14.8,3,synergistic,–,–,–,–
"CO[C@H]1C[C@@H]2CC[C@@H](C)[C@@](O)(O2)C(=O)C(=O)N2CCCC[C@H]2C(=O)O[C@H]([C@H](C)C[C@@H]2CC[C@@H](OCCO)[C@H](OC)C2)CC(=O)[C@H](C)/C=C(\C)[C@@H](O)[C@@H](OC)C(=O)[C@H](C)C[C@H](C)/C=C/C=C/C=C/1C [Everolimus, everolimus]",5.55,3,8.1,2.3,5.5,5,synergistic,3,4.1,12.4,6.5
Cc1nc(Nc2n[nH]c3c2CN(C(=O)N[C@H](CN(C)C)c2ccccc2)C3(C)C)c2sccc2n1 [PF-03758309],11.9,3.7,20.1,8.5,16.8,11.5,synergistic,0.5,−3.6,13.4,3.4
"NS(=O)(=O)OC[C@@H]1C[C@@H](n2ccc3c(N[C@H]4CCc5ccccc54)ncnc32)C[C@@H]1O [Pevonedistat, pevonedistat]",8.25,2.7,13.8,12.7,7.8,4.6,synergistic,9.3,6.2,7,7.5
"Cn1cc(CNCC2CCN(c3ncc(C(=O)NO)cn3)CC2)c2ccccc21 [Quisinostat, quisinostat]",8.85,1.9,15.8,6.9,8.7,6.5,synergistic,8.7,8,16.2,11.0
"CN(C)Cc1ccc(S(=O)(=O)n2ccc(/C=C/C(=O)NO)c2)cc1 [Resminostat, resminostat]",6.7,−0.1,13.5,–,–,–,synergistic,3.1,3.1,11.7,6.0
"CO[C@H]1C[C@@H]2CC[C@@H](C)[C@@](O)(O2)C(=O)C(=O)N2CCCC[C@H]2C(=O)O[C@H]([C@H](C)C[C@@H]2CC[C@@H](O)[C@H](OC)C2)CC(=O)[C@H](C)/C=C(\C)[C@@H](O)[C@@H](OC)C(=O)[C@H](C)C[C@H](C)/C=C/C=C/C=C/1C [Sirolimus, sirolimus]",6.45,3.4,9.5,–,–,–,–,3.4,2,7.9,4.4
"CO[C@H]1C[C@@H]2CC[C@@H](C)[C@@](O)(O2)C(=O)C(=O)N2CCCC[C@H]2C(=O)O[C@H]([C@H](C)C[C@@H]2CC[C@@H](OC(=O)C(C)(CO)CO)[C@H](OC)C2)CC(=O)[C@H](C)/C=C(\C)[C@@H](O)[C@@H](OC)C(=O)[C@H](C)C[C@H](C)/C=C/C=C/C=C/1C [Temsirolimus, temsirolimus]",5.45,1.1,9.8,0.4,3.6,2.8,synergistic,7.4,1.2,5.3,4.6
"CC(C)C[C@@H](C(=O)N[C@H](C(=O)OC1CCCC1)c1ccccc1)[C@H](O)C(=O)NO [Tosedostat, tosedostat]",3.8,2.5,5.1,–,–,–,synergistic,21,6.7,14.6,14.1
"CC1(C)CCC(CN2CCN(c3ccc(C(=O)NS(=O)(=O)c4ccc(NCC5CCOCC5)c([N+](=O)[O-])c4)c(Oc4cnc5[nH]ccc5c4)c3)CC2)=C(c2ccc(Cl)cc2)C1 [Venetoclax, venetoclax]",3.1,0,6.2,–,–,–,–,12.2,0.2,29,13.8
"O=C(CCCCCCC(=O)Nc1ccccc1)NO [Vorinostat, vorinostat]",3.25,−0.7,7.2,–,–,–,synergistic,4.2,1.6,13.7,6.5
